Measured values as given in PubChem BioAssay AID1963960 (Molecular Pharmacology Branch, DTP, NCI, 2024).

Test system: MDA-MB-468 spheroids with HUVEC/MSC, viability
Test: Anticancer human tumor MDA-MB-468 cell line growth inhibition [PI3K];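 also: spheroids exposed to agents for seven days before readout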;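 as to viability, T/C: 100% = DMSO vehicle control viability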
Details: for IC50: curve of first compound; for viability, T/C: stronger effect = lower value
Outline: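 Tumor cells grown as multi-cell spheroids with HUVEC endothelial cells and MSC fibroblast-like stroma were treated with targeted agents combined with inavolisib, alpelisib, duvelisib or copanlisib. Doses fell in half-log steps from near clinical Cmax, else from 10 microM. Viability was measured.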

[1] = second compound 0.0316 µM, first compound 0.0316 µM
[2] = second compound 0.0316 µM, first compound 0.1 µM
[3] = second compound 0.1 µM, first compound 0.0316 µM
[4] = second compound 0.1 µM, first compound 0.1 µM
[5] = second compound 0.316 µM, first compound 0.0316 µM
[6] = second compound 0.316 µM, first compound 0.1 µM
[7] = second compound 1 µM, first compound 0.0316 µM
[8] = second compound 1 µM, first compound 0.1 µM

With CC(C)n1nc(-c2ccc3oc(N)nc3c2)c2c(N)ncnc21 + Cc1nc(NC(=O)N2CCCC2C(N)=O)sc1-c1ccnc(C(C)(C)C(F)(F)F)c1 as the compound, how does the IC50 (second compound 0.0316 µM) read?
The IC50 was 50.6 nM.

What about the IC50 (second compound 0.1 µM) of the same compound?
Its IC50 is 33 nM.

And the IC50 (second compound 0.316 µM)?
Its IC50 is 24.5 nM.

And the IC50 (second compound 1 µM)?
The IC50 was 19 nM.

And the IC50 (second compound 3.16 µM)?
Its IC50 is 14.7 nM.

What about the IC50 (second compound 10 µM) of the same compound?
Its IC50 is < 0.316 nM.

And the viability, T/C (second compound 0.0316 µM, first compound 0.000316 µM)?
Its viability, T/C is 88.3%.

What about the viability, T/C (second compound 0.0316 µM, first compound 0.001 µM) of the same compound?
The viability, T/C was 82.8%.

And the viability, T/C (second compound 0.0316 µM, first compound 0.00316 µM)?
The viability, T/C was 89.5%.

What about the viability, T/C (second compound 0.0316 µM, first compound 0.01 µM) of the same compound?
The viability, T/C was 101%.

And the viability, T/C [1]?
The viability, T/C was 74.6%.

And the viability, T/C [2]?
The viability, T/C was 14.4%.

What about the viability, T/C (second compound 0.1 µM, first compound 0.000316 µM) of the same compound?
The viability, T/C was 93.7%.

And the viability, T/C (second compound 0.1 µM, first compound 0.001 µM)?
The viability, T/C was 79.6%.

And the viability, T/C (second compound 0.1 µM, first compound 0.00316 µM)?
The viability, T/C was 85.5%.

And the viability, T/C (second compound 0.1 µM, first compound 0.01 µM)?
The viability, T/C was 95%.

And the viability, T/C [3]?
Its viability, T/C is 51.6%.

What about the viability, T/C [4] of the same compound?
Its viability, T/C is 10.8%.

And the viability, T/C (second compound 0.316 µM, first compound 0.000316 µM)?
Its viability, T/C is 99.5%.

What about the viability, T/C (second compound 0.316 µM, first compound 0.001 µM) of the same compound?
The viability, T/C was 94.3%.

What about the viability, T/C (second compound 0.316 µM, first compound 0.00316 µM) of the same compound?
The viability, T/C was 86.2%.

And the viability, T/C (second compound 0.316 µM, first compound 0.01 µM)?
The viability, T/C was 82.5%.

And the viability, T/C [5]?
The viability, T/C was 40.6%.

And the viability, T/C [6]?
The viability, T/C was 10.7%.

What about the viability, T/C (second compound 1 µM, first compound 0.000316 µM) of the same compound?
Its viability, T/C is 86.4%.

What about the viability, T/C (second compound 1 µM, first compound 0.001 µM) of the same compound?
The viability, T/C was 75.6%.

What about the viability, T/C (second compound 1 µM, first compound 0.00316 µM) of the same compound?
Its viability, T/C is 63.6%.

What about the viability, T/C (second compound 1 µM, first compound 0.01 µM) of the same compound?
The viability, T/C was 66.2%.

And the viability, T/C [7]?
The viability, T/C was 42.2%.

What about the viability, T/C [8] of the same compound?
The viability, T/C was 11.8%.

What about the viability, T/C (second compound 3.16 µM, first compound 0.000316 µM) of the same compound?
The viability, T/C was 64.5%.

What about the viability, T/C (second compound 3.16 µM, first compound 0.001 µM) of the same compound?
The viability, T/C was 58.4%.

And the viability, T/C (second compound 3.16 µM, first compound 0.00316 µM)?
The viability, T/C was 61.1%.

And the viability, T/C (second compound 3.16 µM, first compound 0.01 µM)?
The viability, T/C was 59.2%.

What about the viability, T/C (second compound 3.16 µM, first compound 0.0316 µM) of the same compound?
Its viability, T/C is 31.8%.

And the viability, T/C (second compound 3.16 µM, first compound 0.1 µM)?
The viability, T/C was 9.62%.

What about the viability, T/C (second compound 10 µM, first compound 0.000316 µM) of the same compound?
The viability, T/C was 42.4%.

And the viability, T/C (second compound 10 µM, first compound 0.001 µM)?
The viability, T/C was 21.8%.

And the viability, T/C (second compound 10 µM, first compound 0.00316 µM)?
The viability, T/C was 32.1%.

What about the viability, T/C (second compound 10 µM, first compound 0.01 µM) of the same compound?
The viability, T/C was 20.7%.

And the viability, T/C (second compound 10 µM, first compound 0.0316 µM)?
The viability, T/C was 18.5%.

And the viability, T/C (second compound 10 µM, first compound 0.1 µM)?
The viability, T/C was 5.69%.

How did the IC50 (second compound 0.00316 µM) turn out when C#Cc1c(F)ccc2cc(O)cc(-c3ncc4c(N5CC6CCC(C5)N6)nc(OCC56CCCN5CC(F)C6)nc4c3F)c12 (centres undefined) + CC(Nc1ccc2c(c1)OCCn1cc(N3C(=O)OCC3C(F)F)nc1-2)C(N)=O was run?
Its IC50 is > 10000 nM.

What about the IC50 (second compound 0.01 µM) of the same compound?
Its IC50 is > 10000 nM.

What about the IC50 (second compound 0.0316 µM) of the same compound?
The IC50 was 8920 nM.

And the IC50 (second compound 0.1 µM)?
Its IC50 is 8000 nM.

And the IC50 (second compound 0.316 µM)?
Its IC50 is 5190 nM.

What about the IC50 (second compound 1 µM) of the same compound?
The IC50 was 4480 nM.

What about the viability, T/C (second compound 0.00316 µM, first compound 0.0316 µM) of the same compound?
Its viability, T/C is 94.9%.

What about the viability, T/C (second compound 0.00316 µM, first compound 0.1 µM) of the same compound?
The viability, T/C was 91%.

What about the viability, T/C (second compound 0.00316 µM, first compound 0.316 µM) of the same compound?
Its viability, T/C is 86%.

What about the viability, T/C (second compound 0.00316 µM, first compound 1 µM) of the same compound?
The viability, T/C was 91.5%.

What about the viability, T/C (second compound 0.00316 µM, first compound 3.16 µM) of the same compound?
Its viability, T/C is 88.2%.

What about the viability, T/C (second compound 0.00316 µM, first compound 10 µM) of the same compound?
Its viability, T/C is 53.4%.

And the viability, T/C (second compound 0.01 µM, first compound 0.0316 µM)?
The viability, T/C was 95.7%.

And the viability, T/C (second compound 0.01 µM, first compound 0.1 µM)?
Its viability, T/C is 103%.

And the viability, T/C (second compound 0.01 µM, first compound 0.316 µM)?
Its viability, T/C is 83.3%.

And the viability, T/C (second compound 0.01 µM, first compound 1 µM)?
Its viability, T/C is 82%.

And the viability, T/C (second compound 0.01 µM, first compound 3.16 µM)?
The viability, T/C was 89.2%.

And the viability, T/C (second compound 0.01 µM, first compound 10 µM)?
The viability, T/C was 55.1%.

What about the viability, T/C [1] of the same compound?
Its viability, T/C is 91.4%.

What about the viability, T/C [2] of the same compound?
The viability, T/C was 84.9%.

What about the viability, T/C (second compound 0.0316 µM, first compound 0.316 µM) of the same compound?
The viability, T/C was 88.3%.

What about the viability, T/C (second compound 0.0316 µM, first compound 1 µM) of the same compound?
The viability, T/C was 81.2%.

What about the viability, T/C (second compound 0.0316 µM, first compound 3.16 µM) of the same compound?
Its viability, T/C is 81.9%.

And the viability, T/C (second compound 0.0316 µM, first compound 10 µM)?
Its viability, T/C is 46.5%.

What about the viability, T/C [3] of the same compound?
The viability, T/C was 84%.

And the viability, T/C [4]?
Its viability, T/C is 76.7%.

And the viability, T/C (second compound 0.1 µM, first compound 0.316 µM)?
Its viability, T/C is 72.1%.

And the viability, T/C (second compound 0.1 µM, first compound 1 µM)?
The viability, T/C was 75.5%.

And the viability, T/C (second compound 0.1 µM, first compound 3.16 µM)?
The viability, T/C was 73.9%.

What about the viability, T/C (second compound 0.1 µM, first compound 10 µM) of the same compound?
Its viability, T/C is 44.4%.

What about the viability, T/C [5] of the same compound?
The viability, T/C was 93.1%.

And the viability, T/C [6]?
The viability, T/C was 72%.

And the viability, T/C (second compound 0.316 µM, first compound 0.316 µM)?
Its viability, T/C is 81.1%.

What about the viability, T/C (second compound 0.316 µM, first compound 1 µM) of the same compound?
Its viability, T/C is 64.5%.

What about the viability, T/C (second compound 0.316 µM, first compound 3.16 µM) of the same compound?
Its viability, T/C is 65.7%.

What about the viability, T/C (second compound 0.316 µM, first compound 10 µM) of the same compound?
The viability, T/C was 36.4%.

What about the viability, T/C [7] of the same compound?
The viability, T/C was 89.1%.

What about the viability, T/C [8] of the same compound?
The viability, T/C was 75.4%.

What about the viability, T/C (second compound 1 µM, first compound 0.316 µM) of the same compound?
Its viability, T/C is 82.1%.

What about the viability, T/C (second compound 1 µM, first compound 1 µM) of the same compound?
Its viability, T/C is 70.3%.

What about the viability, T/C (second compound 1 µM, first compound 3.16 µM) of the same compound?
Its viability, T/C is 59.2%.

And the viability, T/C (second compound 1 µM, first compound 10 µM)?
Its viability, T/C is 31.3%.
